According to paper PMC11429203, “Developing New Peptides and Peptide–Drug Conjugates for Targeting the FGFR2 Receptor-Expressing Tumor Cells and 3D Spheroids” (Biomimetics, 2024):
Where a SMILES comes first, the peptide text is derived from it. Where no end group is shown, it is not given here. The star is where a group is joined. Doxorubicin(3'-N) = COc1cccc2c1C(=O)c1c(O)c3c(c(O)c1C2=O)C[C@@](O)(C(=O)CO)C[C@@H]3O[C@H]1C[C@H](N*)[C@H](O)[C@H](C)O1

Tests used:
Format in all cases: cell-based, human
[1] = system: co-cultured spheroids of KATO (III) cells and colon tumor-associated fibroblasts (CAFs); experiment: Permeation into 3D co-cultured spheroids (fluorescence imaging); conditions: for Permeation of DOX conjugates and neat DOX into spheroids / Permeation of carboxyfluorescein-tagged peptides into spheroids: 1 µM, spheroids grown 6 days at 2000 cells/well, fluorescence imaging; for Permeation of DOX conjugates and neat DOX into spheroids: inherent DOX fluorescence; for Penetration depth from Image J plot profiles of fluorescence intensity, periphery to center: semi-quantitative mean normalized intensity, mean from 3 spheroids; for Permeation of carboxyfluorescein-tagged peptides into spheroids: 24 h incubation
Experimental: To mimic the tumor microenvironment, 3D cultures of tumor cells (spheroids) were grown. For growing spheroids, co-cultures of human colon-associated tumor fibroblasts and KATO III gastric cancer cells were grown in a 1:3 ratio in a growth media containing IMDM and fibroblast growth medium. Spheroids grown at 2000 cells/well and 4000 cells/well were co-cultured in Nunclon Sphera nonadherent 12-well plates and allowed to grow over a period of two weeks. The growth of the spheroids was monitored using optical microscopy. Media was cautiously removed every two days, and replaced with new medium.
The co-cultured spheroids were grown at a density of 2000 cells/well for six days prior to treatment with the peptides or the peptide–drug conjugates. To visualize the internalization of the peptides, those were first tagged with fluorescein to allow for visualization through fluorescence microscopy. For tagging, each peptide was tagged with NHS-Fluorescein (5/6-carboxyfluorescein succinimidyl ester to allow for binding with the amine group of the peptides). To each peptide solution (10 µM), 1 µM of the dye solution was added and allowed to shake in the dark for 24 h. The solutions were then centrifuged and washed with deionized water twice to remove any unbound dye. Then, peptide solutions were vortexed and allowed to incubate with the spheroids. For the drug conjugates, no tagging was done, due to inherent fluorescence of DOX. In general, 1 µM solutions of the peptides or drug conjugates were used. The spheroids were then visualized using fluorescent microscopy using an inverted Amscope IN480TC-20MB13 microscope at various magnifications.
To visualize the internalization of the peptides and the peptide–drug conjugates in the spheroids, we conducted fluorescence microscopy using an Amscope Inverted Phase-Contrast Fluorescence Microscope. Samples were imaged at various magnifications.
It is well known that constrained interstitial penetration may impede the diffusion of drugs into tumors, thus affecting efficacy. […] Their entry within the spheroids was examined through fluorescence imaging. In the case of the conjugates, because DOX is inherently fluorescent, fluorescence images were taken without tagging. […] The plot profiles obtained from the edge of the spheroid to the center were measured. On average, five measurements were carried out for images of each of the spheroids that were incubated with DOX-conjugated peptides, as well as with neat DOX. The fluoresence intensity from the periphery to the center of the spheroid was measured.

[2] = system: KATO III gastric cancer cells; experiment: WST-8 cytotoxicity assay, tumor cells; conditions: 24 h, WST-8, highest concentration (5 µM), triplicate
Experimental: Three cell lines were cultured in 50 mL sterile falcon tissue culture flasks. These included the FGFR2-expressing KATO III gastric cancer cell line (ATCC HTB-103), human colon cancer-associated tumor fibroblasts (HC-6231, Cell Biologics), and primary lung fibroblasts (normal) as control (ATCC-PCS-201-013). Both lines of fibroblasts were grown in Fibroblast Growth Media, and KATO III cells were cultured in Iscove’s Modified Dulbecco’s Medium (IMDM). All growth media were supplement with 10% fetal bovine serum (ATCC), 3 mL of 1X antibiotic-antimycotic mixture per 500 mL medium (GIBCO), 10 units/mL penicillin and 10 μg/mL streptomycin (GIBCO). Each cell line was incubated at 37 °C in a 5% CO2 incubator. Cells were grown to confluence, and the medium was changed every 2 to 3 days. Confluent cells were split twice a week.
Cells were plated in 96-well plates at a density of 1 × 10^4 cells/well. WST-8 assays (Cayman Chemicals, Ann Arbor, MI, USA) were conducted in triplicate for non-cancer primary fibroblasts, as well as for KATO III cells, following manufacturer instructions from the assay kit. […] Following incubation with WST-8 reagent according to manufacturer instructions, absorbance at 450 nm was measured using a Biotek microplate reader. The absorbance of DOX in media was subtracted.
To quantify the effects of the cytotoxicity of the peptides and the DOX conjugates, we conducted WST-8 assays. […]

KATO (III) tumor cells = experiment: Phase contrast imaging of cell morphology after treatment; conditions: 1 µM, 24 h, phase contrast microscopy
Experimental: Cells were plated in 96-well plates at a density of 1 × 10^4 cells/well. WST-8 assays (Cayman Chemicals, Ann Arbor, MI, USA) were conducted in triplicate for non-cancer primary fibroblasts, as well as for KATO III cells, following manufacturer instructions from the assay kit. In general, varying concentrations of the peptides and the DOX conjugates were utilized. The concentrations used were 0.1 µM, 0.5 µM, 1 µM, 2 µM and 5 µM. Neat DOX (1 µM, 2 µM) was also compared. The peptides or drug conjugates or DOX were allowed to incubate with cells for 24 h, and imaged using a phase contrast optical microscope before analysis. Following incubation with WST-8 reagent according to manufacturer instructions, absorbance at 450 nm was measured using a Biotek microplate reader. The absorbance of DOX in media was subtracted.
To investigate the impact of the peptides and the peptide–DOX conjugates on KATO (III) tumor cells, we conducted cytotoxicity studies.

Compound | Permeation of DOX conjugates and neat DOX into spheroids [1] | Penetration depth from Image J plot profiles of fluorescence intensity, periphery to center [1] | Cell viability [2] | Cell morphology after treatment (KATO (III) tumor cells) | Permeation of carboxyfluorescein-tagged peptides into spheroids [1]
ACSAGLPHVLTPEAGATGASCA-(DOX)2 [Trimer-pep-(DOX)2] | relatively higher penetration | penetrate deeper |  |  | 
COc1cccc2c1C(=O)c1c(O)c3c(c(O)c1C2=O)C[C@@](O)(C(=O)CO)C[C@@H]3O[C@H]1C[C@H](NC(=O)CC[C@H](NC(=O)[C@@H]2CCCN2C(=O)[C@@H](NC(=O)[C@H](CC(C)C)NC(=O)[C@@H](NC(=O)[C@H](Cc2c[nH]cn2)NC(=O)[C@@H]2CCCN2C(=O)[C@@H](N)CC(C)C)C(C)C)[C@@H](C)O)C(=O)N[C@@H](C)C(=O)NCC(=O)N[C@@H](C)C(=O)N[C@H](C(=O)N[C@H]2C[C@H](O[C@H]3C[C@](O)(C(=O)CO)Cc4c(O)c5c(c(O)c43)C(=O)c3c(OC)cccc3C5=O)O[C@@H](C)[C@H]2O)[C@@H](C)O)[C@H](O)[C@H](C)O1 [L-pep-(DOX)2] | comparatively lower intensity of fluorescence |  | 7% |  | 
COc1cccc2c1C(=O)c1c(O)c3c(c(O)c1C2=O)C[C@@](O)(C(=O)CO)C[C@@H]3O[C@H]1C[C@H](N)[C@H](O)[C@H](C)O1 [DOX, Doxorubicin, reference compound] | marginal internalization |  |  |  | 
COc1cccc2c1C(=O)c1c(O)c3c(c(O)c1C2=O)C[C@@](O)(C(=O)CO)C[C@@H]3O[C@H]1C[C@H](NC(=O)CNC(=O)[C@H](C)NC(=O)[C@H](CO)NC(=O)[C@H](CS)NC(=O)[C@H](C)N)[C@H](O)[C@H](C)O1 [A-pep-DOX] (H-ACSAG-{Doxorubicin(3'-N)}; N-terminus assumed) | higher fluorescence | penetrate deeper | 9% | appeared to bleb and burst | 
CC(C)C[C@H](NC(=O)[C@@H](NC(=O)[C@H](Cc1c[nH]cn1)NC(=O)[C@@H]1CCCN1C(=O)[C@@H](N)CC(C)C)C(C)C)C(=O)N[C@H](C(=O)N1CCC[C@H]1C(=O)N[C@@H](CCC(=O)O)C(=O)N[C@@H](C)C(=O)NCC(=O)N[C@@H](C)C(=O)N[C@H](C(=O)O)[C@@H](C)O)[C@@H](C)O [L-pep] |  |  |  | appeared spherical | relatively higher fluorescence was observed in the outlayers compared to the core
ACSAG [A-pep] |  |  |  | loss of morphology and adhesive properties | higher internalization
